Laboratory results published in PMC6152131, “Pharmacokinetic Study of Biotransformation Products from an Anxiolytic Fraction of Tilia americana” (Molecules : A Journal of Synthetic Chemistry and Natural …, 2017).

How the values were obtained:
[1] = tested on: intestinal epithelial cells; parameters: method as in PMID 25761590; settings: compared with the aglycone kaempherol; cited from earlier work
[2] = Stability of flavonoids and biotransformation products in mouse plasma under different handling conditions; assay type: in vitro ADME, mice; settings: for Accuracy Bias 0 h / Observed Conc. 0 h / Accuracy Bias 8 h / Observed Conc. 8 h / Accuracy Bias 24 h / Observed Conc. 24 h: room temperature (25 °C); for Observed Conc. 0 h / Observed Conc. 8 h / Observed Conc. 24 h / Observed Conc. Autosampler (4 °C; 8 h) / Observed Conc. Long-term (−70 °C; 1 month): n = 6; for Accuracy Bias Autosampler (4 °C; 8 h) / Accuracy Bias Long-term (−70°C; 1 month) / Observed Conc. Autosampler (4 °C; 8 h) / Observed Conc. Long-term (−70 °C; 1 month): storage stability
Description: (§1) Plasma dried pulverized samples were extracted with methanol (HPLC grade, Merck). The extracts were filtered with Teflon membrane dimensions 0.45 μm by 13 mm (Millex®-LCR); 20 μL of each filtered sample was injected into the HPLC equipment. The measurements were performed in a (Waters corporation, Milford, CT, USA) 2695 HPLC with a diode array detector (Waters 2996) and processed with the Empower Pro 1.0 software. A Chromolith Performance® RP-18e 100 × 4.6 mm (Merck KGaA, Darmstadt, Germany) was used. The mobile phase consisted of a mixture of acetonitrile and water with the proportion 55:45 and a flow rate of 1 mL/min. The concentrations of the flavonoids and the biotransformation products were obtained by comparison with a pre-built calibration curve at λ = 220 nm.
[…] The investigation enclosed here expected manipulation conditions during all the sample storage and process periods, which included the stability data from the freeze/thaw, bench-top, autosampler, and long–term stability tests.
For all stability studies, fresh QC samples were evaluated by using a freshly prepared standard curve for the measurements. The concentrations obtained from all the stability studies were compared with the fresh QC samples, and the percentage concentration deviation was calculated. The analytes were considered stable in the mouse plasma when the concentration difference between the freshly prepared samples and the stability samples was less than 15%.

[3] = Plasma concentration after a single oral dose of the anxiolytic fraction (HPLC); assay type: in vivo, ICR mice; settings: oral 200 mg/kg anxiolytic fraction, immediately after administration and over 24 h
Description: Eleven groups of ten animals each were randomly formed. All animals were orally administered with 200 mg/kg of the active fraction. Animals were anaesthetized with ether, and blood samples were obtained from the retroorbital sinus with a heparinized capillary, each group was examined at different times (0, 5, 10, 15, 30, 60, 120, 240, 480, 720, and 1440 min) after the active fraction was administered. […] Then the plasma samples were frozen and lyophilized. The dry plasma was subsequently used to extract and measure the concentration of the flavonoids and biotransformation products.
as §1
To evaluate the suitability of the assay for the pharmacokinetic studies, 200 mg/kg of the active fraction was orally administered to the animals. Ten animals were used in each group at different times (0, 5, 10, 15, 30, 60, 120, 240, 480, 720, and 1440 min). Pharmacokinetic calculations were performed using the observed data. All data was subsequently processed using the PKSolver add-in program for Microsoft Excel written in Visual Basic for Applications. All values obtained were expressed in mean ± standard deviation.

[4] = high nominal conc. (rutin 7.00; quercetin glucoside, quercitrin, tiliroside 44.37; kaempferol 4.50; m-HPAA, p-HPAA, DOPAC 31.25 µg/mL)
[5] = low nominal conc. (rutin 1.75; quercetin glucoside, quercitrin, tiliroside 11.02; kaempferol 1.12; m-HPAA, p-HPAA, DOPAC 1.95 µg/mL)
[6] = medium nominal conc. (rutin 3.50; quercetin glucoside, quercitrin, tiliroside 22.18; kaempferol 2.24; m-HPAA, p-HPAA, DOPAC 7.81 µg/mL)
[7] = high nominal conc. (7.00; 44.37; 4.50; 31.25 µg/mL)
[8] = low nominal conc. (1.75; 11.02; 1.12; 1.95 µg/mL)
[9] = medium nominal conc. (3.50; 22.18; 2.24; 7.81 µg/mL)

Row | SMILES | Accuracy Bias 0 h ([2]; high nominal conc.) | Observed Conc. 0 h [2, 4] | Accuracy Bias 0 h ([2]; low nominal conc.) | Observed Conc. 0 h [2, 5] | Accuracy Bias 0 h ([2]; medium nominal conc.) | Observed Conc. 0 h [2, 6] | Accuracy Bias 8 h ([2]; high nominal conc.) | Observed Conc. 8 h [2, 7] | Accuracy Bias 8 h ([2]; low nominal conc.) | Observed Conc. 8 h [2, 8] | Accuracy Bias 8 h ([2]; medium nominal conc.) | Observed Conc. 8 h [2, 9] | Accuracy Bias 24 h ([2]; high nominal conc.) | Accuracy Bias 24 h ([2]; low nominal conc.) | Observed Conc. 24 h [2, 8] | Accuracy Bias 24 h ([2]; medium nominal conc.) | Observed Conc. 24 h [2, 9] | Accuracy Bias Autosampler (4 °C; 8 h) ([2]; high nominal conc.) | Observed Conc. Autosampler (4 °C; 8 h) [2, 7] | Observed Conc. Long-term (−70 °C; 1 month) [2, 7] | further results
1 | O=C(/C=C/c1ccc(O)cc1)OC[C@H]1O[C@@H](Oc2c(-c3ccc(O)cc3)oc3cc(O)cc(O)c3c2=O)[C@H](O)[C@@H](O)[C@@H]1O [Tiliroside, tiliroside] | 1.35% | 43.77 ± 4.28 µg/mL | 4.59% | 10.54 ± 0.74 µg/mL | 3.36% | 21.44 ± 2.13 µg/mL | −0.64% | 44.65 ± 4.37 µg/mL | 6.26% | 10.33 ± 0.61 µg/mL | −2.95% | 22.84 ± 2.57 µg/mL | 7.03% | 4.48% | 10.53 ± 0.79 µg/mL | 7.14% | 20.60 ± 2.05 µg/mL | 3.66% | 42.74 ± 3.40 µg/mL | 44.26 ± 2.49 µg/mL | permeability to the intestinal epithelial cells [1]: completely impermeable; Observed Conc. 24 h [2, 7]: 41.25 ± 2.04 µg/mL; Accuracy Bias Long-term (−70°C; 1 month) ([2]; high nominal conc.): 0.24%; Accuracy Bias Autosampler (4 °C; 8 h) ([2]; low nominal conc.): 3.97%; Accuracy Bias Long-term (−70°C; 1 month) ([2]; low nominal conc.): 5.54%; Observed Conc. Autosampler (4 °C; 8 h) [2, 8]: 10.58 ± 0.81 µg/mL; Observed Conc. Long-term (−70 °C; 1 month) [2, 8]: 10.40 ± 0.99 µg/mL; Accuracy Bias Autosampler (4 °C; 8 h) ([2]; medium nominal conc.): −3.45%; Accuracy Bias Long-term (−70°C; 1 month) ([2]; medium nominal conc.): 3.42%; Observed Conc. Autosampler (4 °C; 8 h) [2, 9]: 22.94 ± 2.25 µg/mL; Observed Conc. Long-term (−70 °C; 1 month) [2, 9]: 21.41 ± 1.82 µg/mL; flavonoids found in the plasma after oral administration [3]: not found
2 | C[C@@H]1O[C@@H](Oc2c(-c3ccc(O)c(O)c3)oc3cc(O)cc(O)c3c2=O)[C@H](O)[C@H](O)[C@H]1O [Quercitrin, quercitrin] | 0.56% | 44.12 ± 2.82 µg/mL | −2.26% | 11.27 ± 0.75 µg/mL | −3.39% | 22.94 ± 1.87 µg/mL | −1.33% | 44.96 ± 1.84 µg/mL | −4.83% | 11.56 ± 0.78 µg/mL | −2.11% | 22.65 ± 1.85 µg/mL | 1.05% | 0.30% | 10.99 ± 0.72 µg/mL | −4.15% | 23.11 ± 1.89 µg/mL | −0.17% | 44.44 ± 4.52 µg/mL | 44.17 ± 2.95 µg/mL | Observed Conc. 24 h [2, 7]: 43.90 ± 1.61 µg/mL; Accuracy Bias Autosampler (4 °C; 8 h) ([2]; low nominal conc.): −5.47%; Observed Conc. Autosampler (4 °C; 8 h) [2, 8]: 11.62 ± 1.02 µg/mL; Observed Conc. Long-term (−70 °C; 1 month) [2, 8]: 11.64 ± 0.99 µg/mL; Accuracy Bias Autosampler (4 °C; 8 h) ([2]; medium nominal conc.): −2.73%; Observed Conc. Autosampler (4 °C; 8 h) [2, 9]: 22.79 ± 2.26 µg/mL; Observed Conc. Long-term (−70 °C; 1 month) [2, 9]: 22.49 ± 1.66 µg/mL; flavonoids found in the plasma after oral administration [3]: not found
3 | O=c1c(O)c(-c2ccc(O)cc2)oc2cc(O)cc(O)c12 [Kaempferol, kaempferol] | −4.64% | 4.45 ± 0.41 µg/mL | −3.29% | 1.16 ± 0.099 µg/mL | 0.53% | 2.24 ± 0.20 µg/mL | −1.74% | 4.32 ± 0.21 µg/mL | −7.28% | 1.21 ± 0.83 µg/mL | 4.60% | 2.15 ± 0.19 µg/mL | 1.77% | −2.28% | 1.15 ± 0.098 µg/mL | −8.12% | 2.42 ± 0.22 µg/mL | 1.24% | 4.19 ± 0.37 µg/mL | 4.35 ± 0.39 µg/mL | Accuracy Bias Long-term (−70°C; 1 month) ([2]; high nominal conc.): −2.47%; Accuracy Bias Autosampler (4 °C; 8 h) ([2]; low nominal conc.): −7.77%; Accuracy Bias Long-term (−70°C; 1 month) ([2]; low nominal conc.): −2.77%; Observed Conc. Autosampler (4 °C; 8 h) [2, 8]: 1.21 ± 0.07 µg/mL; Observed Conc. Long-term (−70 °C; 1 month) [2, 8]: 1.15 ± 0.10 µg/mL; Accuracy Bias Autosampler (4 °C; 8 h) ([2]; medium nominal conc.): 0.50%; Accuracy Bias Long-term (−70°C; 1 month) ([2]; medium nominal conc.): 4.13%; Observed Conc. Autosampler (4 °C; 8 h) [2, 9]: 2.24 ± 0.20 µg/mL; Observed Conc. Long-term (−70 °C; 1 month) [2, 9]: 2.15 ± 0.19 µg/mL; flavonoids found in the plasma after oral administration [3]: not found
4 | O=c1c(O[C@@H]2O[C@H](CO)[C@@H](O)[C@H](O)[C@H]2O)c(-c2ccc(O)c(O)c2)oc2cc(O)cc(O)c12 [Quercetin glucoside, quercetin glucoside] | 2.86% | 43.10 ± 2.20 µg/mL | −1.24% | 11.16 ± 0.27 µg/mL | 5.94% | 20.86 ± 1.35 µg/mL | 4.28% | 42.48 ± 1.06 µg/mL | 1.62% | 10.84 ± 0.67 µg/mL | 6.02% | 20.84 ± 1.24 µg/mL | 6.76% | −2.98% | 11.35 ± 0.61 µg/mL | 7.83% | 20.44 ± 1.65 µg/mL | −1.82% | 43.30 ± 2.02 µg/mL | 41.60 ± 2.26 µg/mL | Observed Conc. 24 h [2, 7]: 41.37 ± 1.17 µg/mL; Accuracy Bias Long-term (−70°C; 1 month) ([2]; high nominal conc.): −3.52%; Accuracy Bias Autosampler (4 °C; 8 h) ([2]; low nominal conc.): 2.40%; Accuracy Bias Long-term (−70°C; 1 month) ([2]; low nominal conc.): 6.22%; Observed Conc. Autosampler (4 °C; 8 h) [2, 8]: 11.22 ± 0.59 µg/mL; Observed Conc. Long-term (−70 °C; 1 month) [2, 8]: 11.41 ± 0.71 µg/mL; Accuracy Bias Autosampler (4 °C; 8 h) ([2]; medium nominal conc.): 5.48%; Accuracy Bias Long-term (−70°C; 1 month) ([2]; medium nominal conc.): 7.26%; Observed Conc. Autosampler (4 °C; 8 h) [2, 9]: 20.96 ± 1.31 µg/mL; Observed Conc. Long-term (−70 °C; 1 month) [2, 9]: 20.57 ± 2.06 µg/mL; flavonoids found in the plasma after oral administration [3]: not found
